The test has as its system baby corn seeds. The test can be described thus: root length developed on baby corn seeds after treatment with homeopathic growth stimulant. In kind it is in vivo. As to the method: The length of roots that developed on the baby corn seeds, after treatment of the seeds with various concentrations of homeopathic growth stimulant, was measured. […] This critical transition indicates a fundamental difference in the chemical structure of the resulting plant enhancement substance by molecular cloistering. The criticality and creation of a chemically different substance brought about by dilution is indicated by the synergy of combining the resulting dilution medium and dissolved homeopathic growth stimulant with a nutrient source such as a fertilizer. This synergy is evidenced by the multiplication of growth increase in target plants resulting from the combination. […] However, treatment of a target plant using a combination of dilution medium and dissolved homeopathic growth stimulant along with a nutrient source increases plant growth tenfold.

From patent US20130053245A1, “Method and Substance for Promoting Plant Growth” (World Grow International Corp., priority 2009, published 2013) come the findings set out here.

As to `O.O.O.O.O.O=S(=O)([O-])[O-].[Cu+2]` [CuSO4, copper sulfate pentahydrate (CuSO4.5H2O)], the root development result (high concentration) is “arrests root development”. Moreover, the “root growth (length of roots)” value (higher concentrations of CuSO4 in the homeopathic growth stimulant) is reported as “arrest root growth” and the “root growth (length of roots)” value (lower concentrations of CuSO4, below the homeopathic barrier or threshold concentration) was “enhance root growth”. Moreover, for the setting “homeopathic concentration (3-12X potency)”, the root growth result is “acts as a root growth enhancer”.
